{"source": "paper PMC3083979", "about": "(Pharmaceutical research, 2009)", "key": {"[1]": {"test_system": "perfused livers from Mrp2-deficient TR^− rats", "assay": "In situ single-pass liver perfusion", "format": "in vivo, rat", "conditions": "GF120918 coadministration"}, "[2]": {"test_system": "human sandwich-cultured hepatocytes (SCH)", "conditions": "for Accumulation Cells / Accumulation Cells + Bile / BEI: + 2 µM GF120918, 1 µM [3H]digoxin 10 min or 5 µM fexofenadine 30 min"}, "human OATP1B1": {"test_system": "human OATP1B1", "conditions": "bosentan 100 µM, competitive, transfected CHO cells; ref [45]; cited from earlier work"}, "human OATP1B3": {"test_system": "human OATP1B3", "conditions": "bosentan 100 µM, competitive, transfected CHO cells; ref [45]; cited from earlier work"}, "human OATP2B1": {"test_system": "human OATP2B1", "conditions": "bosentan 100 µM, competitive, transfected CHO cells; ref [45]; cited from earlier work"}, "[3]": {"test_system": "rat isolated perfused livers", "conditions": "P-gp inhibitor erythromycin, ref [43]; cited from earlier work"}}, "note": "Where two headings read alike, the source gives them in different places."}
{"compound": "COc1cc2c(cc1OC)CN(CCc1ccc(NC(=O)c3cccc4c(=O)c5cccc(OC)c5[nH]c34)cc1)CC2", "note": "[GF120918, N-(4-[2-(1,2,3,4-tetrahydro-6,7-dimethoxy-2-isoquinolinyl)ethyl]-phenyl)-9,10-dihydro-5-methoxy-9-oxo-4-acridine carboxamide]", "values": [{"measurement": "Fexofenadine Cl’biliary as % of control", "setting": "[1]", "value": "27.5 % of control"}, {"measurement": "Effect on fexofenadine BEI and in vitro biliary clearance", "setting": "[2]; 2 µM GF120918, human SCH", "value": "not affected"}, {"measurement": "Effect on BEI and in vitro biliary clearance of [3H]digoxin", "setting": "[2]; 2 µM GF120918, human SCH, both livers", "value": "abolished completely"}]}
{"compound": "C[C@H]1O[C@@H](O[C@H]2[C@@H](O)C[C@H](O[C@H]3[C@@H](O)C[C@H](O[C@H]4CC[C@@]5(C)[C@H](CC[C@@H]6[C@@H]5C[C@@H](O)[C@]5(C)[C@@H](C7=CC(=O)OC7)CC[C@]65O)C4)O[C@@H]3C)O[C@@H]2C)C[C@H](O)[C@@H]1O", "note": "[[^3H]Digoxin, digoxin]", "values": [{"measurement": "Accumulation Cells", "setting": "[2]; Liver 1", "value": "29.9 ± 1.6", "unit": "pmol/mg"}, {"measurement": "Accumulation Cells + Bile", "setting": "[2]; Liver 1", "value": "26.2 ± 0.9", "unit": "pmol/mg"}, {"measurement": "BEI", "setting": "[2]; Liver 1", "value": 0, "unit": "%"}, {"measurement": "Accumulation Cells", "setting": "[2]; Liver 1, listed as [^3H]digoxin", "value": 29.9, "unit": "pmol/mg"}, {"measurement": "Accumulation Cells", "setting": "[2]; Liver 2", "value": "25.2 ± 1.6", "unit": "pmol/mg"}, {"measurement": "Accumulation Cells + Bile", "setting": "[2]; Liver 2", "value": "23.4 ± 2.3", "unit": "pmol/mg"}, {"measurement": "BEI", "setting": "[2]; Liver 2", "value": 0, "unit": "%"}]}
{"compound": "COc1ccccc1Oc1c(NS(=O)(=O)c2ccc(C(C)(C)C)cc2)nc(-c2ncccn2)nc1OCCO", "note": "[bosentan]", "values": [{"measurement": "Inhibition of transport of model probes", "setting": "human OATP1B1", "value": "~ 40%"}, {"measurement": "Inhibition of transport of model probes", "setting": "human OATP1B3", "value": "~ 40%"}, {"measurement": "Inhibition of transport of model probes", "setting": "human OATP2B1", "value": "~ 40%"}]}
{"compound": "CC[C@H]1OC(=O)[C@H](C)[C@@H](O[C@H]2C[C@@](C)(OC)[C@@H](O)[C@H](C)O2)[C@H](C)[C@@H](O[C@@H]2O[C@H](C)C[C@H](N(C)C)[C@H]2O)[C@](C)(O)C[C@@H](C)C(=O)[C@H](C)[C@@H](O)[C@]1(C)O", "note": "[erythromycin]", "values": [{"measurement": "Effect on cumulative recovery of fexofenadine in bile", "setting": "[3]", "value": "decreased"}]}
